Data taken from patent US8173392B2, “In vivo incorporation of unnatural amino acids” (The Scripps Research Institute, priority 2001, dated 2012).

Columns and labels:
[1] = test system: valine positions, mutant ValRS; details: mutant E. coli strain grown in presence of Abu; cited from earlier work
mutant TyrRS (LWJ16) = biological target: T1, mutant TyrRS (LWJ16) (Methanocaldococcus jannaschii, UniProt Q57834, D158A/E107T/L162P/N268S/Y32Q); assay: pyrophosphate-exchange assay (adenylate formation with ATP); type: biochemical, M. jannaschii; details: for Kcat / Km: 37° C., pH7.5
T1 construct: The mutant TyrRS (LWJ16) gene with six histidines at its C-terminus was cloned into plasmid pQE-60; His6 (C); made in house
Method: Kinetics of adenylate formation of O-methyl-L-tyrosine and tyrosine with ATP catalyzed by the mutant TyrRS (LWJ16) were analyzed in vitro using a pyrophosphate-exchange assay. The mutant TyrRS (LWJ16) gene with six histidines at its C-terminus was cloned into plasmid pQE-60 (Qiagen, CA) to afford plasmid pQE-mJYRS. Protein was purified by immobilized metal affinity chromatography according to manufacture's protocol (Qiagen, CA). Pyrophosphate (PPi) exchange was carried out at 37° C. in a reaction mixture containing 100 mM Tris HCl (pH7.5), 10 mM KF, 5 mM MgCl2, 2 mM ATP, 2 mM NaPPi, 0.1 mg/mL bovine serum albumin, approximately 0.01 microCi/mL [32P]NaPPi, and various concentrations of tyrosine or O-methyl-L-tyrosine. Reactions were initiated with the addition of the purified mutant TyrRS (LWJ16), and aliquots were periodically taken and quenched with 0.2 M NaPPi, 7% perchloric acid, and 2% activated charcoal. The charcoal was filtered and washed with 10 mM NaPPi (pH2), then measured by scintillation counting to determine the 32P levels in charcoal-adsorbed ATP. Values of kcat and Km were calculated by direct fitting of the Michaelis-Menten equation using nonlinear regression analysis.

E. coli = assay: effect of the amino acid on growth rate of E. coli; type: cell-based; details: 1 mM
Method: Following the two rounds of selection and DNA shuffling, a clone (mutant TyrRS (LWJ16)) was evolved whose survival in chloramphenicol was dependent on the addition of 1 mM O-methyl-L-tyrosine to the growth media. In the absence of O-methyl-L-tyrosine, cells harboring the mutant TyrRS (LWJ16) were not viable on minimal media plates containing 1% glycerol, 0.3 mM leucine (GMML), and 15 micrograms/mL of chloramphenicol. Cells were able to grow on GMML plates with 125 micrograms/mL chloramphenicol in the presence of 1 mM O-methyl-L-tyrosine. Similar results were obtained in liquid GMML.

[2] = test system: cells expressing m-acetyl phenylalanine-incorporated DHFR
Method: Cells expressing the “ketone handle”-incorporated DHFR were incubated with fluorescein hydrazide solution. After 36 hours at 4° C. and extensive washes to remove excess fluorescein hydrazide, the labeled DHFR protein was purified and subjected to fluorescence emission tests. As a negative control in parallel, m-methoxy phenylalanine-incorporated DHFR was also purified with the same procedures.

[3] = test system: yeast amber suppressor tRNAPheCUA/phenylalanyl-tRNA synthetase pair; details: cited from earlier work
SjGST homodimer = assay: photo-activated crosslinking of SjGST (365 nm, SDS-PAGE); design: species or system Schistosoma Japonica; details: long wavelength UV irradiation, 5 minutes
From the text: In vivo incorporation of pBpa into GST. […] This protein is a dimer of two identical subunits which have previously been crosslinked non-specifically using gluteraldehyde. The crystal structure of the dimeric Schistosoma Japonica glutathione-S-transferase (SjGST) (McTigue, M. A., Williams, D. R. & Tainer, J. A. Journal of Molecular Biology 246, 21-27 (1995)) was used to identify two sites to substitute with pBp: residue Phe52, which is buried in the dimer interface of the crystal structure, and residue Tyr198 which is solvent exposed. The codons corresponding to Phe52 or Tyr198 in the gene for a 27 kDa protein Sj GST, were replaced with amber codons. The orthogonal synthetase tRNA pair was then used to site specifically incorporate pBpa into SjGST in E. coli at these sites. Upon irradiation with long wavelength ultraviolet radiation, purified SjGST was converted to a covalently linked homodimer as judged by denaturing SDS PAGE. Approximately 70% of the SjGST present was crosslinked in 5 minutes.
Photo-activated crosslinking. Crosslinking reactions were performed in a 96 well microtitre plate (Nuncsorb) using 100 μL of 10 ng/μL SjGST (in 50 mM NaH2Po4, 300 mM NaCl, 250 mM imidazole) at 4° C. Samples were irradiated at 365 nm using a handheld UV lamp (1 SV, 60 Hz, 0.2 A; Spectronics, NY, USA), for 1 min or 5 min. […]

[4] = test system: Asp112TAG codon in the CAT gene; assay: in vivo chloramphenicol acetyltransferase assay (suppression of Asp112TAG codon in CAT gene, pYC-J17); type: cell-based, E. coli; details: GMML plates
Method: A positive selection was then applied that is based on suppression of an amber stop codon at a nonessential position (Asp112) in the chloramphenicol acetyltransferase (CAT) gene (M. Pastrnak, T. J. Magliery, P. G. Schultz, Helvetica Chimica Acta. 83, 2277-86 (2000)). Cells were grown in media containing the unnatural amino acid and selected for their survival in the presence of various concentration of chloramphenicol. If a mutant TyrRS charges the orthogonal mtRNACUA^Tyr with any amino acid, either natural or unnatural, the cell produces CAT and survives.
The gene encoding mtRNACUA^Tyr under the control of the lpp promoter and rrnC terminator was inserted into plasmid pACMD112TAG (a pACYC184 plasmid with a TAG stop codon replacing Asp112 in its CAT gene (M. Pastrnak, T. J. Magliery, P. G. Schultz, Helvetica Chimica Acta. 83, 2277-86 (2000))) to afford plasmid pYC-J17. Supercoiled DNA encoding the TyrRS library was transformed into E. coli DH10B competent cells containing pYC-J17 to yield a library of size greater than 3×10^9 cfu, ensuring complete coverage of the original library. Cells were then plated on minimal media plates containing 1% glycerol and 0.3 mM leucine (GMML) with 17 micrograms/mL tetracycline(Tet), 25 micrograms/mL kanamycin (Kan), 50 micrograms/mL of chloramphenicol (Cm), and 1 mM unnatural amino acid. […]

[5] = test system: amber codons in T7 RNA polymerase gene driving GFPuv; assay: fluorimetric analysis, T7 RNA polymerase/GFPuv reporter (pREP/YC-JYCUA); type: cell-based, E. coli; details: presence versus absence of OAT
Method: Construction of a multipurpose reporter plasmid. In order to construct a multipurpose plasmid to be used both for selecting and screening variants of a M. jannaschii TyrRS, plasmid pREP(10) was combined with plasmid pYC-J17 (Wang, L, Brock, A., Herberich, B. & Schultz, P. G., Science, 2001, 292, 498-500) to obtain pREP/YC-JYCUA (FIG. 7b). Plasmid pREP/YC-JYCUA was assayed for function with a compatible plasmid expressing a variant of M. jannaschii TyrRS (pBK-mJYRS; Wang, L, Brock, A., Herberich, B. & Schultz, P. G., Science, 2001, 292, 498-500) selective for incorporating O-Methyl-Tyrosine (OMY).
As described above, the T7 RNA polymerase/GFP system can be used to quantitatively compare the activities of synthetase variants. […] The fluorescence enhancement for cells grown in the presence versus the absence of the unnatural amino acid is thus about 6-fold higher for cells expressing OAT-RS (1) from selection and screening than for cells expressing the OAT-RS clone derived from positive/negative selection using barnase. […] However, the fluorescence enhancement for cells grown in the presence versus the absence of an unnatural amino acid is expected to represent a lower limit for the fidelity of unnatural amino acid incorporation, as competition of unnatural amino acids for being bound by an evolved synthetase variant would reduce binding of natural amino acids. […]

CCC(N)C(=O)O (centres unmarked) [Abu, aminobutyrate]
valines replaced at each valine position in the native protein [1]: about 24%

N[C@@H](Cc1ccc(O)cc1)C(=O)O [L-tyrosine]
Km higher than that for O-methyl-L-tyrosine (mutant TyrRS (LWJ16)): approximately 13 fold
kcat down relative to that for O-methyl-L-tyrosine (mutant TyrRS (LWJ16)): 8 fold
Kcat (mutant TyrRS (LWJ16)): 1.8 ± 0.2 10 − 3 s − 1
Km (mutant TyrRS (LWJ16)): 5.83 mM

COc1ccc(C[C@H](N)C(=O)O)cc1 [O-methyl-L-tyrosine]
effect on growth rate of E. coli (E. coli): does not significantly affect the growth rate
kcat/Km higher than that of tyrosine (mutant TyrRS (LWJ16)): about 100 fold
Kcat (mutant TyrRS (LWJ16)): 14 ± 1 10 − 3 s − 1
Km (mutant TyrRS (LWJ16)): 0.443 mM

NN1C(=O)c2ccccc2C12c1ccc(O)cc1Oc1cc(O)ccc12 [fluorescein hydrazide]
cell permeability [2]: cell-permeable
lysis of cells [2]: does not lyse cells

N[C@@H](Cc1ccc(F)cc1)C(=O)O [p-F-Phe, p-fluorophenylalanine]
amino acid found at the Phe codon positions [3]: 7%
translation of the mutagenesis site with the amino acid ([3]; excess of p-F-Phe in growth media): 64-75%

SjGST: Schistosoma Japonica glutathione-S-transferase with pBpa, presumably at Phe52 in the dimer interface
SjGST crosslinked to covalent homodimer (SjGST homodimer): Approximately 70%

B1: mutant TyrRS (LWJ16) (protein, listed as Methanococcus jannaschii)
chain: MDEFEMIKRNTSEIISEEELREVLKKDEKSAQIGFEPSGKIHLGHYLQIKKMIDLQNAGFDIIILLADLHAYLNQKGELDEIRKIGDYNKKVFEAMGLKAKYVYGSTFQLDKDYTLNVYRLALKTTLKRARRSMELIAREDENPKVAEVIYPIMQVNAIHYPGVDVAVGGMEQRKIHMLARELLPKKVVCIHNPVLTGLDGEGKMSSSKGNFIAVDDSPEEIRAKIKKAYCPAGVVEGNPIMEIAKYFLEYPLTIKRPEKFGGDLTVSSYEELESLFKNKELHPMDLKNAVAEELIKILEPIRKRL
chloramphenicol concentration at which cells were not viable ([4]; absence of O-methyl-L-tyrosine): 15 micrograms/mL
chloramphenicol concentration at which cells were able to grow ([4]; presence of 1 mM O-methyl-L-tyrosine): 125 micrograms/mL

B2: OAT-RS (1): O-allyl-tyrosine synthetase clone from positive selection and negative FACS screening (protein, listed as Methanococcus jannaschii)
chain: MDEFEMIKRNTSEIISEEELREVLKKDEKSASIGFEPSGKIHLGHYLQIKKMIDLQNAGFDIIILLADLHAYLNQKGELDEIRKIGDYNKKVFEAMGLKAKYVYGSTFQLDKDYTLNVYRLALKTTLKRARRSMELIAREDENPKVAEVIYPIMQVNTYHYAGVDVAVGGMEQRKIHMLARELLPKKVVCIHNPVLTGLDGEGKMSSSKGNFIAVDDSPEEIRAKIKKAYCPAGVVEGNPIMEIAKYFLEYPLTIKRPEKFGGDLTVNSYEELESLFKNKELHPMDLKNAVAEELIKILEPIRKRL
fluorescence enhancement higher than for OAT-RS clone from positive/negative selection using barnase [5]: about 6 fold
